Data from patent publication US5916881A, “High trehalose content syrup” (Kabushiki Kaisha Hayashibara Seibutsu Kagaku Kenkyujo, priority 1996, dated 1999).
“Also recorded” adds a separate entry of the source.

Assay: Trehalose crystallization inhibitory effect of coexisting saccharides in a trehalose syrup over the water solubility (Experiment 2)
Format: physicochemical
Details: trehalose dissolved in an amount over the water solubility; summary of Table 2
Description: Trehalose was dissolved by heating in water in an amount of 1.5-times the water solubility at 10° C., and the trehalose solution was allowed to stand at a relatively-cold place for checking the trehalose crystallization inhibitory effect by saccharides. […] With this relationship, testing solutions were prepared by dissolving by heating in 100 parts by weight of water in a respective glass beaker 83 parts by weight of trehalose, and a saccharide in an amount of 10% to the trehalose, i.e., 8.3 parts by weight of the saccharide selected from the group consisting of glucose, maltose, isomaltose, lactose, maltotriose, panose, maltotetraose, sorbitol, maltitol, maltotriitol, sucrose, raffinose, erlose, saccharides such as α-glucosyltrehalose or monoglucosyltrehalose, α-maltosyltrehalose or diglucosyltrehalose, and α-maltotriosyltrehalose or triglucosyltrehalose as disclosed in Japanese Patent Kokai No.143,876/95 by the present applicant; a saccharide such as α-isomaltosyl-α-glucoside or monoglucosyltrehalose as disclosed in Japanese Patent Kokai No.217,784/96 by the same applicant; and a saccharide such as α-maltosyl-α-maltoside or diglucosyltrehalose as disclosed in Japanese Patent Application No.167,486/94 by the same applicant. Each solution was allowed to stand in a thermostatic place kept at 5, 10 or 15° C. for one week, followed by macroscopically observing the presence of trehalose crystal for evaluating the trehalose crystallization inhibitory effect by the saccharides.

| Compound | Trehalose crystallization inhibitory effect (in words) |
| --- | --- |
| OC[C@H]1O[C@H](OC[C@H]2O[C@H](O[C@H]3O[C@H](CO)[C@@H](O)[C@H](O)[C@H]3O)[C@H](O)[C@@H](O)[C@@H]2O)[C@H](O)[C@@H](O)[C@@H]1O [α-Isomaltosyl-α-glucoside, α-isomaltosyl-α-glucoside] | specifically and effectively inhibited |
| OC[C@H]1O[C@H](O[C@H]2[C@H](O)[C@@H](O)[C@@H](O[C@H]3O[C@H](CO)[C@@H](O[C@H]4O[C@H](CO)[C@@H](O)[C@H](O)[C@H]4O)[C@H](O)[C@H]3O)O[C@@H]2CO)[C@H](O)[C@@H](O)[C@@H]1O [α-Maltosyl-α-maltoside, α-maltosyl-α-maltoside] | specifically and effectively inhibited |
| OC[C@H]1O[C@H](O[C@H]2O[C@H](CO)[C@@H](O[C@H]3O[C@H](CO)[C@@H](O[C@H]4O[C@H](CO)[C@@H](O[C@H]5O[C@H](CO)[C@@H](O)[C@H](O)[C@H]5O)[C@H](O)[C@H]4O)[C@H](O)[C@H]3O)[C@H](O)[C@H]2O)[C@H](O)[C@@H](O)[C@@H]1O [α-Maltotriosyltrehalose, α-maltotriosyltrehalose] | specifically and effectively inhibited; also recorded: relatively-low trehalose crystallization inhibitory effect |
